Values quoted from earlier work, collected in patent US11351151B2, “Compound having anticancer activity and preparation method and application” (3D Medicines (Beijing) Co., Ltd., priority 2016, dated 2022).

Details: liver cancer patients, phase III; cited from earlier work

Structure (SMILES): CNC(=O)c1cc(Oc2ccc(NC(=O)Nc3ccc(Cl)c(C(F)(F)F)c3)cc2)ccn1 [Sorafenib]
- ORR (overall response rate): 6.9%
- TTP (time to progression): 4.0 months
